Measurements published in ChEMBL document CHEMBL5042516, “Heterobivalent Ligand for the Adenosine A2A-Dopamine D2 Receptor Heteromer” (J Med Chem, 2022).
Activity calls are given as the source filed them. No cut-off for these calls is given here.

How the values were obtained:
Ovis aries [1] = species: Ovis aries; test: Displacement of [3H]- ZM 241 385 from A2A receptor from sheep brain striatum membrane assessed as first protomer region in the unoccupied dimer incubated for 2 hrs by radioligand based competition binding assay; format: cell membranes
Ovis aries [2] = species: Ovis aries; test: Displacement of [3H]YM-09151-2 from dopamine D2 receptor from sheep brain striatum membrane assessed as first protomer region in unoccupied dimer incubated for 2 hrs by radioligand based competition binding assay; format: cell membranes
Ovis aries [3] = species: Ovis aries; test: Displacement of [3H]- ZM 241 385 from A2A receptor from sheep brain striatum membrane assessed as first protomer region in the unoccupied dimer in presence of TM3-TAT peptide by radioligand based competition binding assay; format: cell membranes
Ovis aries [4] = species: Ovis aries; test: Displacement of [3H]- ZM 241 385 from A2A receptor from sheep brain striatum membrane assessed as first protomer region in the unoccupied dimer in presence of TM5-TAT peptide by radioligand based competition binding assay; format: cell membranes
CHO [5] = test: Antagonist activity at chinese hamster A2A receptor expressed in CHO cells assessed as CGS 21 680 induced response at 10 nM and measured for 30 mins by dynamic mass redistribution by DMR assay; format: cell-based; settings: Cricetulus griseus, filed as antagonist
CHO [6] = test: Antagonist activity at chinese hamster D2 receptor expressed in CHO cells assessed as su-manirole induced response at 0.1 nM and measured for 30 mins by dynamic mass redistribution by DMR assay relative to control; format: cell-based; settings: Cricetulus griseus, filed as antagonist
HEK293T = test: Stabilization of A2A/D2 receptor heterodimerization in human HEK-293T cells cotransfected with A2AR-Rluc and D2R-YFP at 100 nM assessed as increase in heteromer stabilization by measuring yellow fluorescent protein level by BRET assay relative to control; format: cell-based

SMILES	K (Ovis aries [2]) [nM]	Activity (CHO [5])	Activity (CHO [6])	Activity (HEK293T)	other results
COC(=O)CN(CC(=O)NCCOCCOCCOCCOCCOCCNC(=O)CCC(=O)Nc1ccc(CCN2CN(c3ccccc3)C3(CCN(CCCC(=O)c4ccc(F)cc4)CC3)C2=O)cc1)CC(=O)NCCOCCOCCOCCOCCOCCNC(=O)COc1ccc(CCCn2ncc3c2nc(N)n2nc(-c4ccco4)nc32)cc1	0.13	Antagonist	Antagonist	Active	K (Ovis aries [1]): 2.1 nM; K (Ovis aries [3]): 1.7 nM; K (Ovis aries [4]): 36 nM
COC(=O)CN(CC(=O)NCCCOCCOCCOCCCNC(=O)CCC(=O)Nc1ccc(CCN2CN(c3ccccc3)C3(CCN(CCCC(=O)c4ccc(F)cc4)CC3)C2=O)cc1)CC(=O)NCCCOCCOCCOCCCNC(=O)COc1ccc(CCCn2ncc3c2nc(N)n2nc(-c4ccco4)nc32)cc1	–	Antagonist	Antagonist	Active	–
Nc1nc2c(cnn2CCCc2ccc(OCC(=O)O)cc2)c2nc(-c3ccco3)nn12	–	Antagonist	–	–	–
COC(=O)CN(CC(=O)NCCOCCOCCNC(=O)CCC(=O)Nc1ccc(CCN2CN(c3ccccc3)C3(CCN(CCCC(=O)c4ccc(F)cc4)CC3)C2=O)cc1)CC(=O)NCCOCCOCCNC(=O)COc1ccc(CCCn2ncc3c2nc(N)n2nc(-c4ccco4)nc32)cc1	–	–	–	Active	–
O=C(O)CCC(=O)Nc1ccc(CCN2CN(c3ccccc3)C3(CCN(CCCC(=O)c4ccc(F)cc4)CC3)C2=O)cc1	–	–	Active	–	–
COC(=O)CN(CC(=O)NCCOCCOCCOCCOCCOCCNC(C)=O)CC(=O)NCCOCCOCCOCCOCCOCCNC(=O)CCC(=O)Nc1ccc(CCN2CN(c3ccccc3)C3(CCN(CCCC(=O)c4ccc(F)cc4)CC3)C2=O)cc1	0.5	–	–	–	–
